How the values were obtained:
Type in all cases: functional, Homo sapiens
Parameters in all cases: dose or concentration left out as unconfirmed
Colon cancer organoid [1] = assay: Identification of compartment-specific drug sensitivities in O20 CRC organoid-stroma F20 CAF co-cultures. Organoid is transduced with Lucferase2-P2A-EGFP lentivirus, fibroblast with Renilla-dsRed lentivirus. Dual-Glo Luciferase assay is used to report viability data.
Colon cancer organoid [2] = assay: Identification of compartment-specific drug sensitivities in O06 CRC organoid-stroma F06 CAF co-cultures. Organoid is transduced with Lucferase2-P2A-EGFP lentivirus, fibroblast with Renilla-dsRed lentivirus. Dual-Glo Luciferase assay is used to report viability data.
Colon cancer organoid [3] = assay: Identification of compartment-specific drug sensitivities in O14 CRC organoid-stroma F14 CAF co-cultures. Organoid is transduced with Lucferase2-P2A-EGFP lentivirus, fibroblast with Renilla-dsRed lentivirus. Dual-Glo Luciferase assay is used to report viability data.
[4] = Transduced with Lucferase2-P2A-EGFP lentivirus
[5] = Transduced with Renilla-dsRed lentivirus

Structure (SMILES) | Cell Viability (Colon cancer organoid [1]; [4]) | Cell Viability (Colon cancer organoid [1]; [5]) | Cell Viability (Colon cancer organoid [2]; [4]) | Cell Viability (Colon cancer organoid [2]; [5]) | Cell Viability (Colon cancer organoid [3]; [4]) | Cell Viability (Colon cancer organoid [3]; [5])
CC#CC(=O)N1CCC[C@H]1c1nc(-c2ccc(C(=O)Nc3ccccn3)cc2)c2c(N)nccn12 [ACALABRUTINIB] | 96.3915% | 99.9657% | 96.562% | 83.4698% | 75.641% | 83.8473%
N#Cc1cnc(Nc2cc(NC[C@H]3CNCCO3)c(C(F)(F)F)cn2)cn1 [SRA-737] | 103.573% | 133.202% | 89.9461% | 120.027% | 25.2627% | 122.808%
O=C(NCC(=O)N1CCCC1)Nc1ccc2cnccc2c1 | 121.558% | 100.064% | 80.3687% | 124.064% | 110.898% | 98.9067%
Cc1cc2c(cc1N1C(=O)c3cccc4c(CCCO)ccc(c34)C1=O)n(C)c(=O)n2C | 35.202% | 231.762% | 83.3962% | 164.269% | 52.1608% | 93.143%
O=C(CNCc1cc2ccccc2[nH]1)N[C@H]1CC[C@@H](c2nc3ccccc3[nH]2)CC1 | 100.403% | 124.153% | 85.8975% | 91.436% | 106.264% | 107.393%
Clc1cccc(-c2nnnn2Cc2cccnc2)c1Cl | 106.259% | 101.74% | 149.518% | 281.873% | 96.2273% | 101.208%
Cc1cnc(-c2cc(Cl)ccc2F)cc1-n1c(=O)n(CC(N)=O)c2ccccc21 [Al11] | 100.628% | 109.542% | 79.8154% | 66.9379% | 90.2433% | 100.795%
CCCOc1ccn2c(C(C)=O)cc(-c3ccccc3S(C)(=O)=O)c2c1 | 150.252% | 117.742% | 121.922% | 129.269% | 92.2028% | 99.133%
O=C(NCCN1CCOCC1)c1ccc2c(c1)C(=O)c1ccc(Nc3ccc(F)c(NC(=O)c4ccccc4)c3)cc1CC2 [FS-694] | 66.3241% | 119.038% | 67.8661% | 67.282% | 121.73% | 92.4198%
Cc1nccc(COC(=O)N2C[C@@H]3[C@@H](CNC(=O)c4ccc5[nH]nnc5c4)[C@@H]3C2)n1 [BI 3017] | 107.028% | 99.2728% | 143.297% | 89.1244% | 148.595% | 113.357%
COc1cc2c(cc1NS(=O)(=O)c1ccc(Br)cc1C)n(C)c(=O)n2C | 86.7229% | 193.757% | 53.0589% | 146.987% | 88.9015% | 103.244%
Cc1sc2c(c1C)C(c1ccc(Cl)cc1)=N[C@H](CC(=O)OC(C)(C)C)c1nnc(C)n1-2 | 99.6993% | 113.657% | 107.283% | 109.974% | 146.34% | 95.1093%
O=C(O)[C@@H]1[C@@H](Cn2nnc3ccccc3c2=O)CC[C@H]1C(=O)c1ccc(OCCC2CCOCC2)cc1 [BAY-694] | 92.0939% | 91.7477% | 99.0718% | 68.3581% | 127.223% | 103.773%
COCc1nc2cnc3cc(-c4c(C)noc4C)c(OC[C@H]4CCNC4)cc3c2n1[C@H](C)c1ccccc1 [GSK778] | 27.6505% | 143.906% | 81.063% | 183.714% | 41.3417% | 133.991%
CC(C)Oc1ccc(-c2c[nH]cc2CN(C)CCO)cc1 | 114.429% | 121.653% | 112.392% | 114.959% | 129.064% | 102.719%
O=C(NC[C@@H]1[C@H]2CN(C(=O)OCc3cc(C(F)(F)F)cc(C(F)(F)F)c3)C[C@@H]12)c1ccc2[nH]nnc2c1 [BI 2545] | 135.058% | 115.933% | 82.8507% | 98.3684% | 136.863% | 113.582%
Cc1noc(C)c1-c1cnc2c(-c3ccc(C(=O)O)cc3)cn([C@@H](C)c3ccccn3)c2c1 [PLX-51107] | 17.7697% | 177.825% | 26.8486% | 312.702% | 39.3332% | 170.275%
NS(=O)(=O)c1cc(NC(=O)Cc2ccccc2)ccc1Oc1cccc(Cl)c1 [BAY-1797] | 89.0927% | 86.996% | 89.5842% | 298.319% | 92.6745% | 115.956%
Cc1cc(-n2nc(Cc3cc(F)cc(C(F)(F)F)c3)nc2C)ccc1C(N)=O [TP-024] | 120.055% | 118.791% | 115.389% | 121.941% | 124.645% | 106.61%
Cn1cc(C2=C(c3cn(C4CCN(Cc5ccccn5)CC4)c4ccccc34)C(=O)NC2=O)c2ccccc21 [ENZASTAURIN] | 54.6044% | 78.6109% | 65.6638% | 92.7001% | 80.1065% | 85.9175%
CNc1nc(Nc2cnn([C@H]3CCN(C4COC4)C[C@@H]3F)c2Cl)ncc1C(F)(F)F | 197.594% | 86.9942% | 94.4056% | 87.0484% | 109.423% | 94.4968%
c1ccc2oc(-c3csc(C4CCN(Cc5nc6ncccc6[nH]5)CC4)n3)cc2c1 | 55.8704% | 105.216% | 118.221% | 124.83% | 115.362% | 96.8387%
CC(C)(C#Cc1ccc(NC(=O)COc2ccccc2C(=O)c2ccccc2)c(Cl)c1)C(=O)O [BI 2439] | 147.968% | 100.148% | 97.1512% | 131.731% | 66.7268% | 62.0838%
O=C1[C@H](Cc2ccc(O)cc2)N2C(=O)CCN(C(=O)NCc3ccccc3)[C@H]2CN1Cc1cccc2ccccc12 | 90.1159% | 144.616% | 79.2211% | 124.216% | 38.6094% | 83.3915%
CC1(C)C(N)=Nc2cc(OCCCCN3Cc4ccc(OCc5cn(CC(=O)N6CCC(CCN7CCCC7)CC6)nn5)cc4C3)c(OCC3CC3)cc21 | 70.7317% | 125.652% | 65.2251% | 114.368% | 112.762% | 94.6071%

— ChEMBL document CHEMBL5608141, “Identification of compartment-specific drug sensitivities in CRC organoid-stroma co-cultures” (2024)
